Converted amounts (≈) assume the structure as drawn.
Assays:
Histone deacetylase [1] = molecular target: Histone deacetylase; design: species or system Rattus norvegicus
Description: Inhibitory concentration against rat liver Histone deacetylase

Histone deacetylase [2] = format: protein assay, Homo sapiens
Description: Inhibitory concentration against human histone deacetylase

Histone deacetylase [3] = format: protein assay, Homo sapiens; remark: listed apart in the source
Description: Inhibitory concentration against histone deacetylase

Histone deacetylase [4] = assay: Inhibitory concentration against human Histone deacetylase in Hela cells; format: cell-based
Plasmodium falciparum = assay: Inhibitory concentration against Plasmodium falciparum […]; format: functional, organism-based
Histone deacetylase [5] = assay: Inhibitory concentration against isolated Histone deacetylase; format: protein assay, Homo sapiens
MDA-MB-435 = assay: cells; format: functional, cell-based; details: Homo sapiens
Description: Inhibitory concentration against MDA-435 cells proliferation

[6] = Inhibition of acetylation of histone-4 in human T-24 cancer cells
HT-1080 = assay: cells; format: functional, cell-based; details: Homo sapiens
Description: Inhibitory concentration against HT1080 cells proliferation

[7] = molecular target: Histone deacetylase (Homo sapiens) (UniProt Q13547+O15379+Q9UBN7+Q92769+Q9UQL6+Q8WUI4+Q9BY41+Q96DB2+P56524+Q9UKV0+Q969S8); assay: Percent inhibition against isolated Histone deacetylase at 30 uM; format: protein assay
Histone deacetylase [8] = format: protein assay, Homo sapiens; remark: listed apart in the source
Description: Inhibitory concentration against human histone deacetylase (HDAC)

CN(C)c1ccc(C(=O)NCCCCCCCC(=O)NO)cc1
IC50 (Histone deacetylase [1]): 145 nM

O=C(CCCCCCNC(=O)c1cc2cc(Cl)ccc2o1)NO
IC50 (Histone deacetylase [2]): 15 nM

O=C(NO)c1ccc(CNC(=O)c2ccc3ccccc3c2)cc1
IC50 (Histone deacetylase [3]): 0.044 µM

CC[C@H](C)[C@@H]1NC(=O)[C@H](Cc2cn(OC)c3ccccc23)NC(=O)[C@H](CCCCCC(=O)C(C)F)NC(=O)[C@H]2CCCCN2C1=O (stereo partly specified)
IC50 (Histone deacetylase [4]): 1 nM
IC50 (Plasmodium falciparum): 0.028 µg/mL (≈ 0.0436 µM)

O=C(CCCCCNC(=O)c1ccc(-c2ccccc2)cc1)NO
IC50 (Histone deacetylase [1]): 265 nM

O=C(O)C(=O)NCCSSCCNC(=O)/C(Cc1ccc(O)c(Br)c1)=N/O
IC50 (Histone deacetylase [5]): 2 nM

O=C(CCCCCCNC(=O)c1ccc2[nH]ccc2c1)NO
IC50 (Histone deacetylase [2]): 31.4 nM

CC[C@H](C)[C@@H]1NC(=O)[C@H](Cc2cn(OC)c3ccccc23)NC(=O)[C@H](CCCCCC(=O)C(C)O)NC(=O)[C@H]2CCCCN2C1=O (stereo partly specified)
IC50 (Histone deacetylase [4]): 0.3 nM
IC50 (Plasmodium falciparum): 0.022 µg/mL (≈ 0.0344 µM)

CC[C@H](C)[C@@H]1NC(=O)[C@H](Cc2cn(OC)c3ccccc23)NC(=O)[C@H](CCCCCC(=O)OC)NC(=O)[C@H]2CCCCN2C1=O
IC50 (Histone deacetylase [4]): 0.4 nM
IC50 (Plasmodium falciparum): 0.21 µg/mL (≈ 0.336 µM)

O=C(CCCCCCC(=O)C(F)(F)F)Nc1cccc(-c2ccccc2)c1
IC50 (Histone deacetylase [2]): 380 nM

Cn1cc(C(=O)Cc2ccccc2)cc1C=C1C(=O)NC(=S)NC1=O
IC50 (Histone deacetylase [5]): 85000 nM

O=C(/C=C/c1cc(C(=O)c2ccccc2)c[nH]1)NO
IC50 (Histone deacetylase [3]): 5 µM

CCC[C@H]1C(=O)N([C@@H](Cc2ccccc2)C(=O)NCCCCCC(=O)NO)C(=O)[C@@H]1CC(C)C
IC50 (MDA-MB-435): 570 nM

Cn1cc(C(=O)c2ccccc2)cc1/C=C/C#N
IC50 (Histone deacetylase [5]): 70000 nM

O=C(CCCCCN1C(=O)c2ccccc2C1=O)NO
IC50 (Histone deacetylase [1]): 515 nM

CN(C)c1ccc(C(=O)c2cc(/C=C/C(=O)NO)n(C)c2)cc1
IC50 (Histone deacetylase [3]): 2.4 µM

CN(C)c1ccc(C(=O)NCCCCC(=O)NO)cc1
IC50 (Histone deacetylase [1]): > 10000 nM

Nc1ccccc1NC(=O)/C=C/c1ccc(S(=O)(=O)Nc2ccc(-c3ccccc3)cc2)cc1
EC [6]: 5 µM

Cn1cc(C(=O)c2ccc(Cl)cc2)cc1/C=C/C(=O)NO
IC50 (Histone deacetylase [3]): 2.4 µM

O=C(CCCCCCNC(=O)c1cccc2cc[nH]c12)NO
IC50 (Histone deacetylase [2]): 41 nM

CC(C)C[C@H]1C(=O)N[C@H](C(=O)NCCCCCC(=O)NO)Cc2ccc(cc2)OCCCC[C@H]1C(=O)OC(C)(C)C
IC50 (Histone deacetylase [1]): 2100 nM

O=C(CCCCCCNC(=O)c1cc2cc(F)ccc2[nH]1)NO
IC50 (Histone deacetylase [2]): 5.4 nM

COc1ccc(C(=O)c2cc(/C=C/C(=O)NO)n(C)c2)cc1
IC50 (Histone deacetylase [3]): 2.9 µM

O=C(CCCCCCNC(=O)c1c[nH]c2ccccc12)NO
IC50 (Histone deacetylase [2]): 37.5 nM

O=C(/C=C/CCCCOc1ccc(-c2ccccc2)cc1)C(F)(F)F
IC50 (Histone deacetylase [2]): 5000 nM

O=C(CCCCCNC(=O)c1ccc([N+](=O)[O-])cc1)NO
IC50 (Histone deacetylase [1]): 1566 nM

O=C(CCCCCCC(=O)c1ccccc1)NO
IC50 (Histone deacetylase [1]): 270 nM

CCC[C@H]1C(=O)N([C@@H](Cc2ccc(OC)cc2)C(=O)NCCCCCC(=O)NO)C(=O)[C@@H]1CC(C)C
IC50 (MDA-MB-435): 180 nM

O=C(NO)c1ccc(CNC(=O)c2cccc3ccccc23)cc1
IC50 (Histone deacetylase [3]): 0.83 µM

O=C(CCCCCCNC(=O)C1Cc2ccccc2O1)NO (stereo unspecified)
IC50 (Histone deacetylase [2]): 29.6 nM
IC50 (HT-1080): 760 nM
IC50 (MDA-MB-435): 490 nM

NC(=O)C(=O)NCCSSCCNC(=O)/C(Cc1ccc(O)c(Br)c1)=N/O [PSAMMAPLIN E]
IC50 (Histone deacetylase [5]): 330 nM

COc1ccc2oc(C(=O)NCCCCCCC(=O)NO)cc2c1
IC50 (Histone deacetylase [2]): 15 nM

CC(C)n1cc(C(=O)c2ccccc2)cc1/C=C/C(=O)NO
IC50 (Histone deacetylase [3]): 53 µM

CC[C@H](C)[C@@H]1NC(=O)[C@H](Cc2cn(OC)c3ccccc23)NC(=O)[C@H](CCCCCC(=O)NO)NC(=O)[C@H]2CCCCN2C1=O
IC50 (Histone deacetylase [4]): 0.2 nM
IC50 (Plasmodium falciparum): 0.00024 µg/mL (≈ 0.000383 µM)

Cn1cc(C(=O)c2ccccc2)cc1/C=C/C(=O)NO
IC50 (Histone deacetylase [3]): 3.8 µM

O=C(NO)c1ccc(CNC(=O)c2ccc(-c3ccccc3)cc2)cc1
IC50 (Histone deacetylase [3]): 0.24 µM

O=C(NCC1CCC(C(=O)NO)CC1)c1ccc(-c2ccccc2)cc1 (stereo unspecified)
IC50 (Histone deacetylase [3]): 0.31 µM

CC(C)C[C@H]1C(=O)N2C(=O)[C@@H]1CCCCOc1ccc(cc1)C[C@H]2C(=O)NCCCCCC(=O)NO
IC50 (HT-1080): 250 nM
IC50 (Histone deacetylase [1]): 38 nM
IC50 (MDA-MB-435): 150 nM

O=C(CCCCCCNC(=O)c1cccc2[nH]ccc12)NO
IC50 (Histone deacetylase [2]): 80.3 nM

Cn1cc(C(=O)c2ccccc2)cc1C=C1C(=O)NC(=S)NC1=O
inhibition [7]: 0%

O=C(CCCCCNC(=O)[C@H](Cc1ccccc1)N1C(=O)CCC1=O)NO
IC50 (MDA-MB-435): 10000 nM

Cn1cc(C(=O)/C=C/c2ccccc2)cc1/C=C/C(=O)NO
IC50 (Histone deacetylase [3]): 1 µM

Cn1cc(C(=O)Cc2ccccc2)cc1C=C1C(=O)NC(=O)NC1=O
IC50 (Histone deacetylase [5]): 104000 nM

CN(C)c1ccc(C(=O)NCCCCCCC(=O)NO)cc1
IC50 (Histone deacetylase [1]): 46 nM

O=C(CCCCCNC(=O)c1ccc(Cl)cc1)NO
IC50 (Histone deacetylase [1]): 369 nM

O=C(CCCCCCNC(=O)c1ccc[nH]1)NO
IC50 (Histone deacetylase [2]): 524 nM

O=C(CCCCCCNC(=O)c1ccccn1)NO
IC50 (Histone deacetylase [2]): 1680 nM

Cn1cc(C(=O)c2ccccc2)cc1C=C1C(=O)NC(=O)NC1=O
inhibition [7]: 0%

O=C(/C=C/c1cc(C(=O)c2ccccc2)cn1-c1ccccc1)NO
IC50 (Histone deacetylase [3]): 110 µM

CC[C@H](C)[C@@H]1NC(=O)[C@H](Cc2cn(OC)c3ccccc23)NC(=O)[C@H](CCCCCC(=O)O)NC(=O)[C@H]2CCCCN2C1=O
IC50 (Histone deacetylase [4]): 15 nM
IC50 (Plasmodium falciparum): > 1 µg/mL

Cn1cc(C(=O)c2ccccc2)cc1CCC(=O)NO
IC50 (Histone deacetylase [3]): 36.8 µM

CC[C@H](C)[C@@H]1NC(=O)[C@H](Cc2cn(OC)c3ccccc23)NC(=O)[C@H](CCCCCC(=O)C2CO2)NC(=O)[C@H]2CCCCN2C1=O (stereo partly specified)
IC50 (Histone deacetylase [4]): < 0.1 nM
IC50 (Plasmodium falciparum): < 0.015 µg/mL

O=C(CCCCCCN1c2cccc3cccc(c23)S1(=O)=O)NO
IC50 (Histone deacetylase [8]): 10 nM

O=C(CCCCCCNC(=O)c1ccccc1)NO
IC50 (Histone deacetylase [2]): 1006 nM

O=C(CCCCCCNC(=O)c1ccc2cc[nH]c2c1)NO
IC50 (Histone deacetylase [2]): 56.5 nM

CCOC(=O)NCCSSCCNC(=O)/C(Cc1ccc(O)c(Br)c1)=N/O
IC50 (Histone deacetylase [5]): 79 nM

COc1cccc2[nH]c(C(=O)NCCCCCCC(=O)NO)cc12
IC50 (Histone deacetylase [2]): 3.1 nM

O=C(CCCCCCNC(=O)c1cc2cc(Br)ccc2[nH]1)NO
IC50 (Histone deacetylase [2]): 3.5 nM

C[C@H](CCCCC(=O)NO)NC(=O)c1ccc(N(C)C)cc1
IC50 (Histone deacetylase [8]): 359 nM

CC[C@H](C)[C@@H]1NC(=O)[C@H](Cc2cn(OC)c3ccccc23)NC(=O)[C@H](CCCCC(=O)OC)NC(=O)[C@H]2CCCCN2C1=O
IC50 (Histone deacetylase [4]): 74 nM
IC50 (Plasmodium falciparum): > 1 µg/mL

COC(=O)NCCSSCCNC(=O)/C(Cc1ccc(O)c(Br)c1)=N/O [PSAMMAPLIN D]
IC50 (Histone deacetylase [5]): 44 nM

O=C(NCCSSCCNC(=O)/C(Cc1ccc(O)c(Br)c1)=N/O)/C(Cc1ccc(O)c(Br)c1)=N/O [PSAMMAPLIN A]
IC50 (Histone deacetylase [5]): 4 nM

CC(C)C[C@@H]1CC(=O)N([C@@H](Cc2ccccc2)C(=O)NCCCCCC(=O)NO)C1=O
IC50 (MDA-MB-435): 670 nM

Cn1cc(C(=O)c2ccccc2)cc1/C=C/C(=N)N
IC50 (Histone deacetylase [5]): 23000 nM

Cn1cc(C(=O)c2ccc(F)cc2)cc1/C=C/C(=O)NO
IC50 (Histone deacetylase [3]): 3.8 µM

O=C(CCCCCCNC(=O)c1cc2ccccc2[nH]1)NO
IC50 (Histone deacetylase [2]): 14.6 nM
IC50 (HT-1080): 140 nM
IC50 (MDA-MB-435): 150 nM

CN(C)c1ccc(C(=O)NCCCCCC(=O)NO)cc1
IC50 (Histone deacetylase [1]): 244 nM

CC[C@H](C)[C@@H]1NC(=O)[C@H](Cc2cn(OC)c3ccccc23)NC(=O)[C@H](CCCCCCC(=O)OC)NC(=O)[C@H]2CCCCN2C1=O
IC50 (Histone deacetylase [4]): 7 nM
IC50 (Plasmodium falciparum): 0.5 µg/mL (≈ 0.782 µM)

CCC(=O)C(F)CCCC[C@@H]1NC(=O)[C@H]2CCCCN2C(=O)[C@H]([C@@H](C)CC)NC(=O)[C@H](Cc2cn(OC)c3ccccc23)NC1=O (stereo partly specified)
IC50 (Histone deacetylase [4]): 110 nM
IC50 (Plasmodium falciparum): 0.7 µg/mL (≈ 1.09 µM)

Cc1ccc(C(=O)c2cc(/C=C/C(=O)NO)n(C)c2)cc1
IC50 (Histone deacetylase [3]): 1.9 µM

C[C@H](/C=C/C=C/C(=O)NO)NC(=O)c1ccc(N(C)C)cc1
IC50 (Histone deacetylase [8]): 12187 nM

COc1ccc2[nH]c(C(=O)NCCCCCCC(=O)NO)cc2c1
IC50 (Histone deacetylase [2]): 6.5 nM

COc1cc(OC)c2cc(C(=O)NCCCCCCC(=O)NO)[nH]c2c1
IC50 (Histone deacetylase [2]): 3.1 nM

Nc1ccccc1NC(=O)/C=C/c1ccc(NS(=O)(=O)c2ccc(-c3ccccc3)cc2)cc1
EC [6]: 15 µM

CC1c2ccccc2CC1C(=O)NCCCCCCC(=O)NO (stereo unspecified)
IC50 (Histone deacetylase [2]): 732 nM

Cn1cc(C(=O)c2ccc([N+](=O)[O-])cc2)cc1/C=C/C(=O)NO
IC50 (Histone deacetylase [3]): 3.9 µM

Reference: ChEMBL document CHEMBL1145900, “Histone deacetylase inhibitors” (J Med Chem, 2003)
